Drawing on PubChem BioAssay (NCI), this text covers GI50 and TGI for 8 compounds.

One may read the GI50 as the concentration that inhibits growth by half. What is called TGI is the concentration at which net growth stops. A high value points to lower sensitivity of the cells.

Test systems include T-47D breast; SN12C renal; CAKI-1 renal; RXF 393 renal; MOLT-4 leukemia; TK-10 renal; M14 melanoma; SK-MEL-28 melanoma.
Experiment in all cases: DTP human tumour cell line panel, 48 h

Values joined by “and” are separate entries in the source; they are usually repeats but may differ in a detail not shown here. Equal entries are not always repeated.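 Interpolation was linear, between the two tested concentrations surrounding the appropriate level; five concentrations were tested over 48 hours in 96-well plates. GI50: concentration for 50% inhibition of growth. TGI: total growth inhibition.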

As to `CN1CCN(c2ccc3nc(-c4[nH]ncc4Nc4ncnc5[nH]ccc45)[nH]c3c2)CC1`, the GI50 is 0.32 µM with T-47D breast; 0.358 µM in the test on SN12C renal; 0.183 µM in the test on CAKI-1 renal; 0.177 µM with RXF 393 renal; 0.429 µM with MOLT-4 leukemia; 1.11 µM in the test on TK-10 renal. The figures for the GI50 in the test with M14 melanoma and in the test with SK-MEL-28 melanoma were 0.377 µM and 0.309 µM, respectively. The TGI is > 52.4 µM in the test with T-47D breast; 5.71 µM with SN12C renal; 1.57 µM in the test with CAKI-1 renal; 0.397 µM with RXF 393 renal; 14.4 µM with MOLT-4 leukemia; 3.32 µM in the test on TK-10 renal. For the same compound, the TGI worked out at 1.84 µM with M14 melanoma and 1.75 µM in the test on SK-MEL-28 melanoma.
As for `CCOc1ccc2nc3cc(N)ccc3c(N)c2c1`, the GI50 in the test on T-47D breast was 0.336 µM and 0.385 µM; with SN12C renal, 0.661 µM and 0.298 µM; in the test with CAKI-1 renal, 36.1 µM and 22.8 µM; with RXF 393 renal, 4.97 µM and 2.38 µM; in the test with MOLT-4 leukemia, 2.99 µM and 3.26 µM; in the test on TK-10 renal it was 20.9 µM and 12.7 µM. For the same compound, the GI50 in the test on M14 melanoma was 8.31 µM and 10.7 µM; with SK-MEL-28 melanoma it was 4.4 µM and 4.3 µM. The TGI was 1.57 µM and 2.4 µM in the test on T-47D breast; 6.45 µM and 2.1 µM in the test on SN12C renal; > 100 µM and 76.3 µM in the test with CAKI-1 renal; 20.3 µM and 14.6 µM in the test with RXF 393 renal; 12.2 µM and 12.4 µM with MOLT-4 leukemia; 46.8 µM and 34.8 µM with TK-10 renal. The TGI in the test on M14 melanoma was 26.3 µM and 23.4 µM; in the test with SK-MEL-28 melanoma, 15.7 µM and 15.9 µM.
On to `CCOC(=O)c1sc2nc(=S)[nH]c(NC(N)=S)c2c1C`, for which the GI50 in the test with T-47D breast is 11.3 µM; with SN12C renal, 13.1 µM; with CAKI-1 renal, 31.4 µM; in the test on RXF 393 renal it was 19.1 µM; in the test on MOLT-4 leukemia, 30.1 µM; with TK-10 renal, 95.5 µM. Besides, the GI50 with M14 melanoma is 26.5 µM; with SK-MEL-28 melanoma, 19 µM. Besides, the TGI is 37 µM in the test on T-47D breast; 26.9 µM in the test on SN12C renal; 61.7 µM in the test on CAKI-1 renal; 47.2 µM in the test with RXF 393 renal; > 100 µM in the test with MOLT-4 leukemia; > 100 µM with TK-10 renal. Further, the values for the TGI in the test on M14 melanoma and in the test with SK-MEL-28 melanoma were 64.6 µM and 41.6 µM, respectively.
On to `Oc1ccc(CCNc2nc3ccccc3c3[nH]c4ccccc4c23)cc1O`, for which the GI50 is 14.2 µM in the test with T-47D breast; 1.94 µM in the test on SN12C renal; 11 µM with CAKI-1 renal; 1.91 µM in the test with RXF 393 renal; 2.16 µM in the test with MOLT-4 leukemia; 5.37 µM in the test on TK-10 renal. Moreover, the GI50 in the test on M14 melanoma was 2.62 µM; in the test with SK-MEL-28 melanoma, 5.85 µM. Besides, the TGI with T-47D breast worked out at 32.2 µM; in the test with SN12C renal it was 7.29 µM; in the test on CAKI-1 renal, 22.9 µM; in the test with RXF 393 renal, 3.59 µM; in the test with MOLT-4 leukemia, 5.38 µM; in the test with TK-10 renal, 19 µM. Further, the TGI in the test on M14 melanoma came to 7.28 µM; in the test with SK-MEL-28 melanoma, 18.3 µM.
As for `O=c1[nH]c(=O)n(Cc2ccc(C34CC5CC(CC(C5)C3)C4)c(O)c2)cc1F`, the GI50 in the test with T-47D breast is 13.6 µM; in the test on SN12C renal, 13.5 µM; in the test with CAKI-1 renal it was 17.7 µM; in the test with RXF 393 renal, 5.28 µM; with MOLT-4 leukemia, 12.4 µM; with TK-10 renal it was 15.4 µM. Moreover, the results for the GI50 in the test on M14 melanoma and in the test on SK-MEL-28 melanoma were 11.5 µM and 4.62 µM, respectively. Besides, the TGI was 44.4 µM in the test on T-47D breast; 26.8 µM with SN12C renal; 37.5 µM with CAKI-1 renal; 18.3 µM with RXF 393 renal; 32.4 µM with MOLT-4 leukemia; 33.7 µM with TK-10 renal. For the same compound, the TGI with M14 melanoma turned out to be 29.2 µM; with SK-MEL-28 melanoma, 21.8 µM.
Take `CCOc1cc(/C=C/C(=O)CC(=O)/C=C/c2ccc(OC(=O)CNc3nc4ccc(OC)cc4s3)c(OCC)c2)ccc1OC(=O)CNc1nc2ccc(OC)cc2s1`: the GI50 in the test on T-47D breast is 10.6 µM; in the test on SN12C renal, 11.6 µM; with CAKI-1 renal, 11.4 µM; in the test on RXF 393 renal, 2.9 µM; in the test with MOLT-4 leukemia, 3.14 µM; in the test on TK-10 renal, 11.4 µM. For the same compound, the figures for the GI50 in the test with M14 melanoma and with SK-MEL-28 melanoma were 5.18 µM and 3.54 µM, respectively. The TGI in the test with T-47D breast is 43.1 µM; in the test with SN12C renal it was 65.5 µM; with CAKI-1 renal, 53.3 µM; in the test on RXF 393 renal, 17 µM; in the test with MOLT-4 leukemia, 11.1 µM; in the test with TK-10 renal, 27.5 µM. Besides, the values for the TGI in the test on M14 melanoma and in the test on SK-MEL-28 melanoma were 22.5 µM and 12.2 µM, respectively.
For `C=CC(=O)N1CCN([C@@H](CC2CC2)c2ccc([C@H](C)Nc3ncc4c(n3)N(CC)C(=O)OC4)cc2)CC1`, the GI50 was 14.8 µM in the test with T-47D breast; 13.7 µM in the test with SN12C renal; 5.23 µM in the test with CAKI-1 renal; 4.62 µM with RXF 393 renal; 4.51 µM in the test on MOLT-4 leukemia; 9.02 µM in the test on TK-10 renal. Also, the GI50 in the test with M14 melanoma was 15.5 µM; in the test with SK-MEL-28 melanoma, 16.6 µM. For the same compound, the TGI is 61.3 µM in the test on T-47D breast; 31.8 µM in the test on SN12C renal; 19 µM with CAKI-1 renal; 20.9 µM in the test on RXF 393 renal; 26.4 µM in the test with MOLT-4 leukemia; 23.1 µM with TK-10 renal. Also, the TGI in the test on M14 melanoma came to 30.1 µM; in the test with SK-MEL-28 melanoma, 30.5 µM.
With `CC(C)Cn1cnc2c(N)nc3ccccc3c21`, the GI50 was 41.6 µM with T-47D breast; 78.8 µM in the test on SN12C renal; 34.8 µM with CAKI-1 renal; 28.9 µM in the test with RXF 393 renal; > 64.4 µM with MOLT-4 leukemia; 94.8 µM in the test on TK-10 renal. Besides, the GI50 in the test with M14 melanoma was 43.9 µM; in the test with SK-MEL-28 melanoma it was > 74.9 µM. The TGI in the test on T-47D breast is > 100 µM; in the test on SN12C renal, > 100 µM; in the test on CAKI-1 renal, > 100 µM; in the test on RXF 393 renal it was 97.2 µM; in the test with MOLT-4 leukemia, > 100 µM; in the test with TK-10 renal, > 100 µM. In addition, the TGI with M14 melanoma and in the test with SK-MEL-28 melanoma was > 100 µM each time.
